Test results as given in patent publication US9926306B2, “Inhibition of MCL-1 and/or BFL-1/A1” (Dana-Farber Cancer Institute, Inc., priority 2012, dated 2018).

Columns and labels:
MCL-1ΔNΔC = MCL-1ΔNΔC (Homo sapiens (Human), UniProt Q07820); test: Competitive fluorescence polarization binding assay, MCL-1; settings: Table A
Experimental: Here, we deployed MCL-1 SAHBA as a high fidelity screening tool to determine if its potency and specificity-of-action could be harnessed for small molecule discovery. […] A compilation of 71,296 small molecules was screened for the capacity to displace FITC-MCL-1 SAHBA from recombinant MCL-1ΔNΔC (aa 172-327) (FIG. 4).
Fluorescence polarization assays (FPA) were performed as previously described^38,39. […] Fluorescence polarization was measured at equilibrium and IC50 values calculated by nonlinear regression analysis of competitive binding curves using Prism software (Graphpad).

BFL-1/A1ΔC = BFL-1/A1ΔC (Homo sapiens (Human), UniProt Q16548); test: Competitive fluorescence polarization binding assay, BFL-1/A1 (FITC-BID BH3); settings: Table A
Sequence of BFL-1/A1ΔC (Q16548 1-153): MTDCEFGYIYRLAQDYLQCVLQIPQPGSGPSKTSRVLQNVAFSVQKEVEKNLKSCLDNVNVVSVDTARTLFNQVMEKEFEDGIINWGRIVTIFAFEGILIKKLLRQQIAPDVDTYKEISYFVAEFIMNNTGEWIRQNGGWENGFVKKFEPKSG
From the text: FIG. 19A and FIG. 19B are graphs that show potent targeting of the anti-apoptotic protein BFL-1/A1 by MIM1. […] Thus, the complex between FITC-BID BH3 and BFL-1/A1ΔC was employed in a competitive FP assay to monitor the capacity of MIM1 to target BFL-1/A1ΔC.

Sequence of MCL-1ΔNΔC (Q07820 172-327, stated change not applied): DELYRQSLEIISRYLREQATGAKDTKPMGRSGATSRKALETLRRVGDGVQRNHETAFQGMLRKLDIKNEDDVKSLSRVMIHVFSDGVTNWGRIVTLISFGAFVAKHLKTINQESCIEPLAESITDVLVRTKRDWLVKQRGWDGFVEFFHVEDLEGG

Row | SMILES | IC50 (MCL-1ΔNΔC) [µM] | IC50 (BFL-1/A1ΔC) [µM]
1 | Oc1ccc(/C=N/NC(=S)NC2CCCCC2)c(O)c1O [178-72] | 16 | 5.1
2 | CCc1cs/c(=N\C2CCCCC2)n1/N=C/c1ccc(O)c(O)c1O [178-82] | 2.1 | 1.2
3 | Oc1ccc(/C=N/n2c(C3CC3)cs/c2=N\C2CCCCC2)c(O)c1O [178-83] | 0.91 | 0.785
4 | COC(=O)Cc1cs/c(=N\C2CCCCC2)n1/N=C/c1ccc(O)c(O)c1O [178-97] | 9.5 | 1
5 | Cc1s/c(=N\C2CCCCC2)n(/N=C/c2ccc(O)c(O)c2O)c1C [183-8] | 1.5 | 0.712
6 | Cc1cs/c(=N\C2CCCC2)n1/N=C/c1ccc(O)c(O)c1O [183-19] | 3.1 | 0.631
7 | Cc1cs/c(=N\c2ccccc2)n1/N=C/c1ccc(O)c(O)c1O [183-20] |  | 0.264
8 | Oc1ccc(/C=N/n2c(C3CC3)cs/c2=N\c2ccccc2)c(O)c1O [183-21] | 4.3 | 0.719
9 | Oc1ccc(/C=N/n2c(C3CC3)cs/c2=N\C2CCCC2)c(O)c1O [183-22] | 2.4 | 0.601
10 | CCOc1ccccc1/N=c1\scc(C)n1/N=C/c1ccc(O)c(O)c1O [183-24] | 16 | 2.5
11 | Cc1cs/c(=N\C2CCCCC2)n1/N=C/c1ccc(O)c(O)c1 [183-38] | 12 | 0.282
12 | CC(C)(C)c1cs/c(=N\C2CCCCC2)n1/N=C/c1ccc(O)c(O)c1O [183-44] | 0.54 | 0.914
13 | Oc1ccc(/C=N/N2/C(=N/C3CCCCC3)SCC2(O)C(F)(F)F)c(O)c1O (stereo not drawn) [183-51] | 2.9 | 1.2
14 | CC(C)(C)c1cs/c(=N\C2CCCCC2)n1/N=C/c1ccc(O)c(O)c1 [183-65] | 17.7 | 2.1
15 | CC(C)(C)Cc1cs/c(=N\C2CCCCC2)n1/N=C/c1ccc(O)c(O)c1O [183-70] | 1.97 | 1.5
16 | Oc1ccc(/C=N/n2c(-c3cccs3)cs/c2=N\C2CCCCC2)c(O)c1O [183-76] | 11 | 0.388
17 | Oc1ccc(/C=N/n2c3c(s/c2=N\C2CCCCC2)CCCC3)c(O)c1O [183-81] | 4.5 | 1.3
18 | Cc1cs/c(=N\C2CC3CCC2C3)n1/N=C/c1cc(O)c(O)cc1O (stereo not drawn) [183-82] | 1 | 0.169
19 | Cc1cs/c(=N\C2CCCCC2)n1/N=C/c1cc(O)c(O)c(O)c1 [183-84] | 13 | 0.316
20 | COc1cc(/C=N/n2c(C)cs/c2=N\C2CCCCC2)cc(OC)c1OC [183-85] | 7.6 | 
21 | CC(C)(C)c1cs/c(=N\C2CCCCC2)n1/N=C/c1cc(O)c(O)cc1O [183-87] | 0.151 | 0.042
22 | CC(C)(C)c1cs/c(=N\C2CCCCC2)n1/N=C/c1cc(O)c(O)c(O)c1 [183-88] | 1.16 | 0.759
23 | Cc1s/c(=N\C2CCCCC2)n(/N=C/c2cc(O)c(O)cc2O)c1C [183-89] | 0.78 | 0.581
24 | CC(C)C(C)/N=C1\SCC(Br)(C2CC2)N1/N=C/c1cc(O)c(O)cc1O (stereo not drawn) [187-19] | 0.891 | 

Continued, values first:

Row | IC50 (MCL-1ΔNΔC) [µM] | IC50 (BFL-1/A1ΔC) [µM] | SMILES
25 |  | 8.4 | Cc1cs/c(=N\C2CCCCC2)n1/N=C/c1cc(O)c(O)cc1F [187-8]
26 |  | 9.1 | CC(C)(C)c1cs/c(=N\C2CCCCC2)n1/N=C/c1cc(O)c(O)cc1F [187-10]
27 |  | 2.8 | CCc1s/c(=N\C2CCCCC2)n(/N=C/c2ccc(O)c(O)c2O)c1C(C)(C)C [187-37]
28 |  | 0.735 | Cc1s/c(=N\C2CCN(C(=O)OC(C)(C)C)CC2)n(/N=C/c2ccc(O)c(O)c2O)c1C1CC1 [187-50]
29 |  | 31 | Cc1cs/c(=N\C2CCCCC2)n1/N=C/c1c(O)cc(O)cc1O [187-81]
30 |  | 3 | Oc1ccc(/C=N/n2c(C3CC3)cs/c2=N\c2ccccc2)cc1O [187-95]
31 |  | 15 | COc1cc(/C=N/n2c(C(C)(C)C)cs/c2=N\C2CCCCC2)c(O)cc1O [190-4]
32 |  | 1.7 | Oc1ccc(/C=N/n2c(-c3cccs3)cs/c2=N\c2ccccc2)c(O)c1O [190-18]
33 |  | 0.365 | Oc1ccc(/C=N/n2c(C3CC3)cs/c2=N\c2ccccc2)c(O)c1O [190-20]
